Source: publication PMC8538057, “Direct Delivery of ANA-TA9, a Peptide Capable of Aβ Hydrolysis, to the Brain by Intranasal Administration” (Pharmaceutics, 2021)
Read-outs that look alike come from different tables or passages of the source. Ends that are not written are not given here.

Experiments:
[1] = In vivo brain distribution study after i.n. and i.p. administration to mice; design: species or system Male ddY mice; details: mouse; for Tmax: plasma
Protocol: For i.n. administration, ANA-TA9 was dissolved in PBS at a concentration of 100 mg/mL. Since the profile of the concentration in the plasma after i.p. administration was similar with that after i.n. administration, i.p. administration served as the control for i.n. administration. The nasal solution was diluted to 10 mg/mL for i.p. administration. Male ddY mice weighing 25 g were purchased from Japan SLC. The animals were maintained under conventional housing conditions. After anesthetization by the inhalation of isoflurane (2%), ANA-TA9 solution (5 μL each) was administered to both nostrils of the mice. The ANA-TA9 solution (100 μL) was administered peritoneally. After making an incision in the abdomen at 5, 15, 30, 45, 60, and 90 min after administration, blood was collected from the postcaval vein. Soon after the blood sampling, the heparinized ice-cold saline was flushed by perfusion from the left ventricle to remove the blood from the cerebral blood vessel. The whole brain was removed; washed with ice-cold saline; and divided into three sections: olfactory bulb, frontal brain, and occipital brain. The tissue concentrations of ANA-TA9 were measured with LC/MS. The plasma and brain concentrations of ANA-TA9 were determined by LC/MS, LC-20A, and LCMS-2020 (SHIMADZU, Kyoto, Japan). Briefly, 100 μL of the plasma were mixed with 1000 μL of methanol. […] To the dissected brain tissue, 100 μL of ice-cold purified water were added, and the mixture was homogenized under ice-cold conditions. To the homogenate, 4000 μL of ice-cold methanol were added. […] The residues were reconstituted with 100 μL of the mobile phase of the chromatography. In the preliminary study, it was confirmed that the effect of rapid degradation of ANA-TA9 on the assay could be excluded by the treatment on the blood and brain tissues mentioned above. Chromatographic separation was performed using a C18 analytical column (TSKgel ODS 100V, 3 μm, 2.0 mm × 100 mm; TOSOH, Tokyo, Japan). The mobile phase was acetonitrile/0.1% acetic acid (10/90), and the flow rate was 0.2 mL/min. ANA-TA9 eluting from the column was detected with mass spectrometry under the positive mode. Nitrogen gas was used for nebulization at a flow rate of 1.5 L/min. Other conditions (temperature and voltage) were set as the default. The calibration curves of ANA-TA9 in the plasma and the brain were determined. […] For the calculation of the direct transport percentage (DTP), the equation by Fukuda M. et al. was slightly modified. The modified equation is as follows:(1) %DTP=(AUCbrain)IN−(AUCbrain)X/(AUCbrain)IN×100 (2) (AUCbrain)X=(AUCbrain)IP/(AUCplasma)IP×(AUCplasma)IN in the above equation, AUCbrain,i.p. and AUCplasma,i.p. are used in place of AUCbrain,i.v. and AUCplasma,i.v. in the original equation by Fukuda M. et al.

in vivo = experiment: in vivo; design: species or system male Wistar/ST rats; details: male, Wistar/ST, rat, 2 mg
Protocol: ANA-TA9 diluted in PBS was administered to the left nostril of male Wistar/ST rats (n = 3) at a dose of 2 mg (20 μL of 100 mg/mL). For the comparison, i.v. administration served as the control for i.n. administration. The same dose of ANA-TA9 ([…] of a 10 mg/mL PBS solution) was administered into the left femoral vein of 3 rats. CSF was collected 10 min after i.n. administration by cisternal puncture. An incision was made in the skin over the occipital bone, and the first layer of the muscle was cut. The sharp end of a 25-G needle connected to PE-50 tubing (1 m length) was carefully inserted into the cisterna magna. CSF was withdrawn into the tubing with a disposable syringe. Collection was terminated as soon as blood appeared in the tubing. CSF in the tubing was ejected into a ProteoSave SS 1.5 mL microtube (Sumitomo Bakelite Co., Ltd., Tokyo, Japan) and frozen at −40 °C. The CSF volumes ranged between 100 and 150 μL (n = 6). The plasma and brain concentrations of ANA-TA9 were determined by LC/MS, LC-20A, and LCMS-2020 (SHIMADZU, Kyoto, Japan). Briefly, 100 μL of the plasma were mixed with 1000 μL of methanol. […] To the dissected brain tissue, 100 μL of ice-cold purified water were added, and the mixture was homogenized under ice-cold conditions. To the homogenate, 4000 μL of ice-cold methanol were added. […] The residues were reconstituted with 100 μL of the mobile phase of the chromatography. In the preliminary study, it was confirmed that the effect of rapid degradation of ANA-TA9 on the assay could be excluded by the treatment on the blood and brain tissues mentioned above. Chromatographic separation was performed using a C18 analytical column (TSKgel ODS 100V, 3 μm, 2.0 mm × 100 mm; TOSOH, Tokyo, Japan). The mobile phase was acetonitrile/0.1% acetic acid (10/90), and the flow rate was 0.2 mL/min. ANA-TA9 eluting from the column was detected with mass spectrometry under the positive mode. Nitrogen gas was used for nebulization at a flow rate of 1.5 L/min. […] The calibration curves of ANA-TA9 in the plasma and the brain were determined.

[2] = Storage stability of ANA-TA9 at −40 °C (preliminary study); format: physicochemical; details: storage at −40 °C (plasma samples)
Protocol: The rats were anesthetized through i.p. administration of a mixture of medetomidine (0.15 mg/kg body weight), midazolam (2 mg/kg body weight), and butorphanol (2.5 mg/kg body weight). The right femoral artery was cannulated with polyethylene tubing. ANA-TA9 was injected into the left femoral vein of 3 rats at a dose of 2 mg (200 μL of a 10 mg/mL PBS solution). Those 3 rats nasally received the same dose of ANA-TA9 (20 μL of a 100 mg/mL PBS solution) under anesthesia. For nasal administration, a micropipette was used. After i.n. administration, the animals were kept conscious in a rat cage (KN-326-III; Natsume, Tokyo, Japan) throughout the experiment after recovery from anesthesia. The PBS solution of ANA-TA9 (12 mg/mL) was infused intravenously for 10 min at a 25 µL/min flow rate. The infused dose was 3 mg/rat. At the appropriate time intervals after administration, blood samples were taken, heparinized, and immediately cooled down on ice, followed by centrifugation at 15,000 rpm for 5 min to obtain the plasma. The plasma samples were stored at −40 °C until the assay. In the preliminary study, it was confirmed that ANA-TA9 stored at −40 °C is stable for at least 2 weeks.

Sequence: SKGQAYRMI [ANA-TA9]
- tissue level at time at 5 min ([1]; male, ddY, in vivo, inhaled or intranasal, 1 mg): 712 ± 54 ng/g
- Tmax ([1]; male, ddY, inhaled or intranasal, 1 mg, i.n., read-out: time of peak plasma concentration, i.n. (converted)): 5 min
- Tmax ([1]; male, ddY, ip, 1 mg, i.p., read-out: time of peak plasma concentration, i.p. (converted)): 5 min
- time of peak concentration in the frontal brain, i.n. ([1]; i.n.): 30 min
- time of peak concentration in the occipital brain, i.n. ([1]; i.n.): 30 min
- time of peak concentration in the olfactory bulb, i.n. ([1]; i.n.): 5 min
- DTP (direct transport percentage), olfactory bulb ([1]; i.n. vs i.p., from the AUC up to 90 min after administration, mean ± SE of four or five animals): 96.3 ± 0.9%
- time of peak concentration in the olfactory bulb, i.p. ([1]; i.p.): 15 min
- apparent half-life in the olfactory bulb after i.n. administration ([1]; in vivo): 15 min
- time after i.n. administration at which ANA-TA9 could be detected in the olfactory bulb ([1]; in vivo): 60 min
- concentration in the olfactory bulb more than 45 min after i.p. application ([1]; in vivo, ip): below the limit of detection
- peak plasma concentration, i.p. relative to i.n. (times higher) ([1]; in vivo, ip): approximately 11 times
- level at 10 min (in vivo; inhaled or intranasal, CSF concentration 10 min after i.n. administration): 72 ± 6 ng/mL
- level at 10 min (in vivo; inhaled or intranasal, plasma concentration 10 min after i.n. administration): 24 ± 5 ng/mL
- level at 10 min (in vivo; iv, plasma concentration 10 min after i.v. administration): 10 ± 1 ng/mL
- time for which ANA-TA9 stored at −40 °C is stable [2]: at least 2 weeks
